Source: US5534242A, “Lidocaine-vasoconstrictor aerosol preparation” (priority 1995, dated 1996)
Where a name gives a salt, the structure may show the parent alone.

Columns and labels:
[1] = cited from earlier work
[2] = tested on: nasal mucosa; conditions: cited from earlier work
[3] = Solubilization of vasoconstricting agents in HFC propellants with lidocaine base; stability of the formulations; conditions: for Behaviour of ethanol solution on addition of HFC-134a: ethanol solution also containing lidocaine free base; for Solubility in lidocaine base/HFC-134a solution: base form dissolved in ethanol (Formulations 11 and 12)
Method: The formulations of this invention can be manufactured in different ways. In one method, the lidocaine and vasoconstricting agent are dissolved in the organic solvent and place in the aluminum canister which is then capped and pressure filled with propellant. Where an organic solvent is not required, the lidocaine and vasoconstricting agent are dissolved in the propellant which is then pressure filled into the closed empty aluminum canister.
These formulations are presented for exemplary purposes only and by no means limit the scope and content of the invention defined by the claims.

## OCc1ccccc1 [Benzyl alcohol]
HFC-134a, no lidocaine
  Solubility of organic solvent in HFC-134a: not soluble

## COC(=O)[C@H]1[C@@H](OC(=O)c2ccccc2)C[C@@H]2CC[C@H]1N2C [Cocaine]
[1]; even small doses
  Dose that may cause systemic toxicity: approximately 30 mg
[1]; most patients
  Tolerability: well tolerated by most patients

## CCN(CC)CC(=O)Nc1c(C)cccc1C [Lidocaine base, 2-(diethylamino)-2',6'-acetoxylidide]
[2]
  Vasoconstriction of the mucosa: does not vasoconstrict the mucosa
[3]; HFC-134a
  Behaviour of ethanol solution on addition of HFC-134a: remained in solution

## CNC[C@H](O)c1cccc(O)c1 [Phenylephrine]
[2]
  Decongestion of the nasal mucosa: excellent decongestion

## COc1ccc(OC)c(C(O)C(C)N)c1 (stereo not shown) [methoxamine]
[3]
  Solubility in lidocaine base/HFC-134a solution: readily soluble

## CNC[C@H](O)c1cccc(O)c1 [phenylephrine base]
[3]; diethylene glycol, lidocaine base, HFC-134a
  Clear and stable solution with phenylephrine base substituted for the hydrochloride in formulation 9: Clear and stable solutions

## CNC[C@H](O)c1cccc(O)c1 [phenylephrine hydrochloride, (R)-3-hydroxy-alpha-[(methylamino)methyl]benzene methanol hydrochloride]
[3]; HFC-134a
  Behaviour of ethanol solution on addition of HFC-134a: remained in solution
2.5% w/w in ethyl alcohol, HFC-134a, no lidocaine
  Behaviour of ethyl alcohol solution on addition of HFC-134a: precipitated out of solution
HFC-134a and HFC-227, no lidocaine
  Solubility in HFC propellants: insoluble
HFC-134a, versus with lidocaine base, almost 50% more
  Additional ethyl alcohol required to maintain a solution in HFC-134a in the absence of lidocaine base: ~50%
Benzyl alcohol + HFC-134a, no lidocaine
  Solubility of combination with benzyl alcohol in HFC-134a: not soluble
Benzyl alcohol, HFC-134a added, no lidocaine
  Solubility in benzyl alcohol: remained in solution
Diethylene glycol
  Solubility in diethylene glycol: soluble
Diethylene glycol + HFC-134a, no lidocaine
  Solubility of combination with diethylene glycol in HFC-134a: not soluble
Propylene glycol
  Solubility in propylene glycol: soluble
Propylene glycol + HFC-134a, no lidocaine
  Solubility of combination with propylene glycol in HFC-134a: not soluble

## CC(N)C(O)c1ccccc1 (stereo not shown) [phenylpropanolamine]
[3]
  Solubility in lidocaine base/HFC-134a solution: readily soluble
